Results: patent US8389541B2, “Inhibitors of protein tyrosine kinase activity” (MethylGene Inc., priority 2007, dated 2013)

Tests used:
[1] = target: recombinant human c-Met/HGF receptor (Homo sapiens, UniProt P08581); experiment: In vitro receptor tyrosine kinase assay (DELFIA), c-Met/HGF receptor
[2] = system: A549 cells; experiment: Wound healing assay in A549 cells (HGF-stimulated); assay type: cell-based; details: Homo sapiens, last dose that inhibited gap closing by more than 25%, 24 h, read-out: A549 WOUND_HEALING IC50
Procedure: Wound healing assay in A549 cells. A549 cells (ATCC) are seeded in DMEM low glucose medium complemented with 10% FBS into 24-well plates at a density of 7.5×10^4 cells/well and grown to confluence (48 h). Inhibitors were added to the medium at a range of doses (0.00032-10 uM) for 3 h at which point a gap is introduced by scraping cells with a P1000 pipette tip. Cells are then stimulated to migrate by the addition of HGF (in the form of conditioned medium from 293T cells over-expressing the human HGF gene) and the culture is continued for 24 h. […] For the purpose of standardization, a control is carried on every assay plates.

[3] = target: T1, VEGF receptor KDR (Homo sapiens, UniProt P35968); experiment: In vitro receptor tyrosine kinase assay (DELFIA), VEGF receptor KDR; assay type: biochemical; details: GST-VEGFR2 806-1356, 0.6 uM ATP; read-out: VEGFR IC50
T1 construct: made in house; host or cells: Sf9 cells (Spodoptera frugiperda), baculovirus
Source text: In the case of VEGF receptor KDR a 1.6-kb cDNA corresponding to the catalytic domain of VEGFR2 or KDR (Genbank accession number AF035121 amino acid 806 to 1356) is cloned into the Pst I site of the pDEST20 Gateway vector (Invitrogen) for the production of a GST-tagged version of that enzyme.
The GST-VEGFR2806-1356 protein is expressed in Sf9 cells (Spodoptera frugiperda) upon infection with recombinant baculovirus construct.
The supernatant is loaded onto a GST-agarose column (Sigma) equilibrated with PBS pH 7.3. Following a four column volume (CV) wash with PBS pH 7.3+1% Triton X-100 and 4 CV wash with buffer B (50 mM Tris pH 8.0, 20% glycerol and 100 mM NaCl), bound proteins are step eluted with 5 CV of buffer B supplemented with 5 mM DTT and 15 mM glutathion. […] Final GST-VEGFR2806-1356 protein preparations concentrations are about 0.7 mg/ml with purity approximating 70%.

[4] = target: T2, c-Met (Homo sapiens, UniProt P08581); experiment: Inhibition of c-Met phosphorylation in MKN45 cells (direct ELISA); assay type: cell-based; details: 3 h treatment, read-out: CMET ELISA IN MKN45 IC50
T2 construct: endogenous in cells; host or cells: MKN45 gastric carcinoma cells
Source text: The following assay is used to determine inhibition of c-Met phosphorylation.
The c-Met receptor is expressed in numerous cancer cell lines derived from tumors of epithelial origin. In MKN45 gastric carcinoma cells the c-Met gene is amplified, resulting in several-fold overexpression of the receptor and its constitutive activation. For this reason constitutively high levels of ERK1/2 are also detected in these cells, independently of HGF-added stimulation (Smolen G A, Sordella R, Muir B, Mohapatra G, Barmettler A, Archibald H, et al. Amplification of MET may identify a subset of cancers with extreme sensitivity to the selective tyrosine kinase inhibitor PHA-665752. Proc Natl Acad Sci USA 2006). We have developed a sensitive method to follow c-Met phosphorylation in these cells. In previous studies with earlier generation c-Met inhibitors, we established that the IC50s for the inhibition of c-Met phosphorylation were identical using this novel ELISA approach and standard western blot procedure, with antibodies directed against the activating autocatalysis tyrosine residues of c-MET (Tyr Y1230-34-35).
Cell treatments: MKN45 cells are seeded into wells of 96-well plates at a density of 3×10^4 cells/well in RPMI medium supplemented with 10% FBS. HA-TPR-RON expressing 293T (clone 18) cells are seeded into wells of 96-well plates at a density of 3×10^4 cells/well in DMEM medium supplemented with 10% FBS. Cells are grown for 48 h prior to treatments with compounds of interest. Inhibitors are added to the medium in triplicate wells at the indicated doses. After 3 h of treatment, media is aspirated and cells are lysed by one freeze-thaw cycle in 50 μL/well hypotonic lysis buffer (25 mM HEPES pH 7.5, 10 mM NaCl with 1 mM 4-(2-aminoethyl)benzenesulfonyl fluoride hydrochloride, 200 μM sodium orthovanadate, 1 mM sodium fluoride, 10 μg/mL of leupeptin, 10 μg/mL of aprotinin/mL, 1 μg/mL of pepstatin and 50 μg/mL Na-p-tosyl-L-lysine chloromethyl ketone hydrochloride.
Detection of phosphorylated c-Met by direct ELISA: Lysate samples (5 μL) from wells of treatment plates are transferred to 80 μL of binding buffer (25 mM HEPES pH 7.5, 200 mM NaCl) in wells of high binding white polysterene 96-well plates (Corning). After an overnight protein binding incubation at 4° C., lysates are aspirated and wells are blocked for 1 h at 37° C. in TBST supplemented with 5% BSA. Plates are incubated with the primary antibodies anti-phospho-Tyrosine (Millipore, 4G10) diluted 1/15000 in TBST supplemented with 5% BSA for 1 h at room temperature. Plates are washed 3 times on a plate washer (SkanWasher, Molecular Devises), and incubated with the reporter antibody […] (Sigma) diluted 1/15000 in TBST supplemented with 5% BSA, for 1 h at room temperature. Plates are washed 3 times with TBST using on a plate washer and subsequently incubated with chemiluminescent substrate solution (ECL, Roche). Luminescence signal is captured on a Polar Star Optima apparatus (BMG LabTech).
Average values of the triplicate samples are used to prepare IC50 curves using a 4-parameter fit model. These curves are calculated using, for example, GraFit 5.0 software. For assay standardization purpose, an internal control is included on each experimental test plate.

[5] = system: DU145 cells; experiment: Scatter assay in DU145 cells (HGF-stimulated); assay type: cell-based; details: Homo sapiens, DU-145, last dose that created an inhibitory effect on scattering, 24 h, read-out: DU145 SCATT. INHIB IC50
Procedure: Scatter assays in DU145. The scatter assay is performed as described previously (Miura H, Nishimura K, Tsujimura A, Matsumiya K, Matsumoto K, Nakamura T, et al. Effects of hepatocyte growth factor on E-cadherin-mediated cell-cell adhesion in DU145 prostate cancer cells. Urology 2001; 58(6):1064-9) for DU145 prostate carcinoma cells with the indicated modifications. In brief, DU145 cells (ATCC) are seeded in 24-well plates at a density of 7×10^3 cells/well in MEM medium complemented with 10% FBS and cultured for 48 h, to allow the formation of small compact colonies of cells. Inhibitors are subsequently added at a range of doses (0.00032-10 uM) for 3 h. Cells are then stimulated to migrate by the addition of HGF (in the form of conditioned medium from 293T cells over-expressing the human HGF gene) and the culture is continued for another 24 h. The IC50 values is defined as the last dose that created an inhibitory effect on scattering. For the purpose of standardization a control is carried on every test plates for the DU145 scattering assays.

T2 sequence (P08581 25-1390): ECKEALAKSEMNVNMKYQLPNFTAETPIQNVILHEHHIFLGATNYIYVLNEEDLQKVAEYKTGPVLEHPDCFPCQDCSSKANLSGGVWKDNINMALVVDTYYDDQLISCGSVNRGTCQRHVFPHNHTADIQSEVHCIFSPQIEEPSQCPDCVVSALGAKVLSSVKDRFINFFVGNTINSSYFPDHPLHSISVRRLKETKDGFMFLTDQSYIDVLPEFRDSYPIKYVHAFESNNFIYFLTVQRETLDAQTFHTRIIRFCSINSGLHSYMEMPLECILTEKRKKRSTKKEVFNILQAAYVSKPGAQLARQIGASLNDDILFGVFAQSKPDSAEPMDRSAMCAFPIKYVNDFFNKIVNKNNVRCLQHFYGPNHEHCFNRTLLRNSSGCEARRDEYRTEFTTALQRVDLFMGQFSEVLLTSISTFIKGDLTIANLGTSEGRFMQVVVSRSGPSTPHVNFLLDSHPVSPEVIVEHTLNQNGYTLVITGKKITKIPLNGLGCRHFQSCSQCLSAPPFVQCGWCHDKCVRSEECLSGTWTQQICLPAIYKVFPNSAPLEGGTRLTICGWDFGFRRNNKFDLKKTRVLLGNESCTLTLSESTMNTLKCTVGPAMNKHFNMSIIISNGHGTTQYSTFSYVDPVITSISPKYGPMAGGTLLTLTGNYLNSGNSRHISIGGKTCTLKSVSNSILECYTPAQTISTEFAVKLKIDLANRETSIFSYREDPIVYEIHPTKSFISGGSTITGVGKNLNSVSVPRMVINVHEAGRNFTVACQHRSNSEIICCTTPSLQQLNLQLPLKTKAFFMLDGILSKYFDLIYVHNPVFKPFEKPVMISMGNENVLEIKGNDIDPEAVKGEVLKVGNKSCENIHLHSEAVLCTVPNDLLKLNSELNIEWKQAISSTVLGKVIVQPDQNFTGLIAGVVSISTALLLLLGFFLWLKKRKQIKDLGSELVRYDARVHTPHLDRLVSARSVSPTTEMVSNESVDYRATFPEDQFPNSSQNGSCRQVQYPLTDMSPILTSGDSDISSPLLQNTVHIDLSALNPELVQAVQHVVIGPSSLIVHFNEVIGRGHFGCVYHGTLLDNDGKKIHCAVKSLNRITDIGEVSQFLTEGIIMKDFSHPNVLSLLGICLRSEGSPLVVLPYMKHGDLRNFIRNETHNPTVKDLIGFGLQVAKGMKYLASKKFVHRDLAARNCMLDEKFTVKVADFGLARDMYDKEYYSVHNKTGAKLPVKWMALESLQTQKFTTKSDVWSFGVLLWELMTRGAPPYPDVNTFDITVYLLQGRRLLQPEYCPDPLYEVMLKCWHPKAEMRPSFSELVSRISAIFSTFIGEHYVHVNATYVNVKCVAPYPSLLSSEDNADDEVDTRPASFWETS
T1 sequence (P35968 806-1356): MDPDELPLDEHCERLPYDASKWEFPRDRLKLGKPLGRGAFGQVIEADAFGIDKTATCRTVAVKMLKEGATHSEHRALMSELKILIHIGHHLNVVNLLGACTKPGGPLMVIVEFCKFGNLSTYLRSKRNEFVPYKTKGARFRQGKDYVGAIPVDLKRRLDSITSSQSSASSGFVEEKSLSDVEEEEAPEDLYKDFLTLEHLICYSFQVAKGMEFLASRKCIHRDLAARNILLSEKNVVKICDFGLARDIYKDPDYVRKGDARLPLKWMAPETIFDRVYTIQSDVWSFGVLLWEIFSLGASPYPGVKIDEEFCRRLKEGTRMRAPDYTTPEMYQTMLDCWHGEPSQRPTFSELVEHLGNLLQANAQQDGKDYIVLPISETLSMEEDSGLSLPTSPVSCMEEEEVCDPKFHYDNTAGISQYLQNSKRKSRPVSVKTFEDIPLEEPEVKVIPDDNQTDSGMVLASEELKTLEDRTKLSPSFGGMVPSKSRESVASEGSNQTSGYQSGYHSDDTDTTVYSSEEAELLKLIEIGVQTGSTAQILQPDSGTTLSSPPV
Chain of recombinant human c-Met/HGF receptor (P08581 1078-1337): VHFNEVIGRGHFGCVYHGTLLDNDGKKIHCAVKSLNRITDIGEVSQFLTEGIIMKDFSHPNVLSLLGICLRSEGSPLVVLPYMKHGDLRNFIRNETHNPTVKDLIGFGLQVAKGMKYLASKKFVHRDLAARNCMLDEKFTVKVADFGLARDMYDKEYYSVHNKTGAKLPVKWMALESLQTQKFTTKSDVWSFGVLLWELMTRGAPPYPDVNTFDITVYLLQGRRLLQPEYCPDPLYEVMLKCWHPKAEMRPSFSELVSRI

Structure (SMILES) | IC50 [1] | IC50 [2] | IC50 [3] | IC50 [4] | IC50 [5]
CS(=O)(=O)CCNCc1cccc(-c2cc3nccc(Oc4ccc(NC(=S)NC(=O)Cc5ccc(F)cc5)cc4F)c3s2)c1 | < 250 nM | > 1000 nM | < 250 nM | < 250 nM | > 1000 nM
COCCNCCc1cccc(-c2cc3nccc(Oc4ccc(NC(=S)NC(=O)Cc5ccc(F)cc5)cc4F)c3s2)c1 | < 250 nM | 250 to 500 nM | < 250 nM | < 250 nM | < 250 nM
COCCNCc1ccc(-c2cc3nccc(Oc4ccc(NC(=S)NC(=O)Cc5ccccc5F)cc4F)c3s2)cc1 | < 250 nM | 250 to 500 nM | < 250 nM | < 250 nM | 250 to 500 nM
COC[C@H](C)NCc1ccc(-c2cc3nccc(Oc4ccc(NC(=S)NC(=O)Cc5ccc(F)cc5)cc4F)c3s2)cc1 | < 250 nM | 250 to 500 nM | < 250 nM | < 250 nM | 250 to 500 nM
COCCNCCC(=O)N1CC=C(c2cc3nccc(Oc4ccc(NC(=O)CC(=O)N(C)c5ccccc5)cc4F)c3s2)CC1 | < 250 nM | 250 to 500 nM | < 250 nM | < 250 nM | < 250 nM
COCCNCc1ccc(-c2cc3nccc(Oc4ccc(NC(=S)NC(=O)Cc5ccccc5)cc4F)c3s2)o1 | < 250 nM | 250 to 500 nM | < 250 nM | < 250 nM | > 1000 nM
CN(C)CCOC(=O)N1CC=C(c2cc3nccc(Oc4ccc(NC(=S)NC(=O)Cc5ccccc5)cc4F)c3s2)CC1 | < 250 nM | < 250 nM | < 250 nM | < 250 nM | < 250 nM
COCCNCc1ccc(-c2cc3nccc(Oc4ccc(NC(=O)CC(=O)N(C)c5ccc(F)cc5)cc4F)c3s2)nc1 [drawing 352] | < 250 nM | 250 to 500 nM | < 250 nM | < 250 nM | 250 to 500 nM
COCCNCc1cnc(-c2cc3nccc(Oc4ccc(NC(=O)C5(C(=O)Nc6ccccc6)CC5)cc4F)c3s2)n1C | < 250 nM | < 250 nM | < 250 nM | < 250 nM | < 250 nM
COCCNCc1ccc(-c2cc3nccc(Oc4ccc(NC(=O)C5(C(=O)Nc6ccccc6)CC5)cc4F)c3s2)nc1 [drawing 350] | < 250 nM | < 250 nM | < 250 nM | < 250 nM | < 250 nM
COCCNCCn1cc(-c2cc3nccc(Oc4ccc(NC(=O)C5(C(=O)Nc6ccc(F)cc6)CC5)cc4F)c3s2)cn1 | < 250 nM | < 250 nM | < 250 nM | < 250 nM | < 250 nM
COC[C@H](C)NCc1cccc(-c2cc3nccc(Oc4ccc(NC(=S)NC(=O)Cc5ccc(F)cc5)cc4F)c3s2)c1 [drawing 297] | < 250 nM | 250 to 500 nM | < 250 nM | < 250 nM | < 250 nM
COCCNCc1ccc(-c2cc3nccc(Oc4ccc(NC(=O)C5(C(=O)Nc6ccc(F)cc6)CC5)cc4F)c3s2)nc1 [drawing 354] |  | < 250 nM | < 250 nM |  | < 250 nM
COCCNCc1ccc(-c2cc3nccc(Oc4ccc(NC(=O)C5(C(=O)Nc6ccccc6OC)CC5)cc4F)c3s2)cc1 | < 250 nM | 250 to 500 nM | < 250 nM | 500 to 1000 nM | 250 to 500 nM
COCCNCc1cccc(-c2cc3nccc(Oc4ccc(NC(=S)NC(=O)Cc5ccc(F)cc5)cc4F)c3s2)c1 [drawing 296] | < 250 nM | 250 to 500 nM | < 250 nM | < 250 nM | 250 to 500 nM
O=C(Cc1ccc(F)cc1)NC(=S)Nc1ccc(Oc2ccnc3cc(-c4ccc(CNC5CC5)cc4)sc23)c(F)c1 | < 250 nM | 250 to 500 nM | < 250 nM | < 250 nM | 250 to 500 nM
COCCNCc1ccc(-c2cc3nccc(Oc4ccc(NC(=O)CC(=O)Nc5ccccc5)cc4F)c3s2)cc1 | < 250 nM | 250 to 500 nM | < 250 nM | 250 to 500 nM | 250 to 500 nM
CS(=O)(=O)CCNCc1ccc(-c2cc3nccc(Oc4ccc(NC(=S)NC(=O)Cc5ccc(F)cc5)cc4F)c3s2)cc1 | < 250 nM | 250 to 500 nM | < 250 nM | < 250 nM | 250 to 500 nM
CS(=O)(=O)CCNCc1cccc(-c2cc3nccc(Oc4ccc(NC(=S)NC(=O)Cc5ccccc5)cc4F)c3s2)c1 | < 250 nM | > 1000 nM | < 250 nM | < 250 nM | > 1000 nM
COCCNCc1ccc(-c2cc3nccc(Oc4ccc(NC(=O)C5(C(=O)Nc6ccccc6)CC5)cc4F)c3s2)o1 [drawing 326] | < 250 nM | 250 to 500 nM | < 250 nM | < 250 nM | 250 to 500 nM
COCCNCc1cccc(-c2cc3nccc(Oc4ccc(NC(=O)NC5CC5)cc4F)c3s2)n1 | 250 to 500 nM |  | 250 to 500 nM |  | 
COCCNCc1cnc(-c2cc3nccc(Oc4ccc(NC(=O)NC5CC5)cc4F)c3s2)n1C | 250 to 500 nM |  | < 250 nM |  | 
COCCN(Cc1cnc(-c2cc3nccc(Oc4ccc(NC(=O)NC5CC5)cc4F)c3s2)n1C)C(=O)OCc1ccccc1 | > 1000 nM |  |  |  | 
COCCNCc1cnc(-c2cc3nccc(Oc4ccc(NC(=O)Nc5cc(C)on5)cc4F)c3s2)n1C |  |  | < 250 nM |  | 
COCCNCc1cccc(-c2cc3nccc(Oc4ccc(NC(=O)Nc5cc(C(F)(F)F)ccc5F)cc4F)c3s2)n1 | < 250 nM |  | < 250 nM |  | 
